This is an account of results in article PMC4527730, “A Pan-GTPase Inhibitor as a Molecular Probe” (PLoS ONE, 2015).

In brackets after ≈: the same amount, converted by molar mass. Read-outs that look alike come from different tables or passages of the source. A value given as a limit tells only on which side of the number the result lay.

Data set [1] deals with integrin VLA-4 on U937 FPRΔST cells. Also noted: method as in PMID 23382385. To be noted: cited from earlier work.
The target in data set [2] is Rab7 (Canis lupus familiaris, UniProt P18067). Kind of data set: Multiplex bead-based flow cytometry dose-response of fluorescent guanine nucleotide binding. The note with it: read-out: EC50 Rab7; BODIPY-FL GTP binding; 2 h at 4°C. For orientation: Flow cytometry measures light scatter and fluorescence of single cells or particles in a stream.
Description: (§1) Briefly, individual GST-GTPases were separately attached to glutathione microsphere beads that were labeled with varying intensity of red fluorescent dye, and subsequently combined. The buffer contains 30 mM HEPES (pH 7.2), 150 mM KCl, 20 mM NaCl, 0.1% BSA, 1 mM DTT, 1 mM EDTA and 0.1% NP-40. […] To study whether the compounds are slow binders, BODIPY^- FL GTP was added either immediately or 2 h after compound addition. […] The curves were fitted to the sigmoidal dose-response equation using GraphPad Prism. Percent response was calculated as the ratio of (sample MCF–negative control MCF) / (positive control MCF–negative control MCF).
For data set [3], the target named is Cdc42 Q61L (Homo sapiens, UniProt P60953, Q61L). Described as above. The note with it: read-out: EC50 Cdc42 Q61L; BODIPY-FL GTP binding; 2 h at 4°C.
Description: as §1
Data set [4] concerns the target H-Ras G12V (Homo sapiens, UniProt P01112, G12V). The description is as above. To be noted: read-out: EC50 H-Ras G12V; BODIPY-FL GTP binding; 2 h at 4°C.
Description: as §1
Data set [5] addresses H-Ras (Homo sapiens, UniProt P01112). The data set is described as above. To be noted: read-out: EC50 H-Ras; BODIPY-FL GTP binding; 2 h at 4°C.
Description: as §1
In data set [6] the target is Cdc42 (Homo sapiens, UniProt P60953). The data set is described as above. The note with it: read-out: EC50 Cdc42; BODIPY-FL GTP binding; 2 h at 4°C.
Description: as §1
Data set [7] deals with GTPases (H-Ras, H-Ras G12V, Cdc42, Cdc42 Q61L, Rac1, Rac1 Q61L, RhoA, Rab7). Kind of data set: Multiplex dose-response assay, statements across the GTPase panel. The note with it: for inhibitory activity on BODIPY-FL GTP binding across all GTPases tested (in words): SAR versus compound 1.
Description: (§2) Briefly, individual GST-GTPases were separately attached to glutathione microsphere beads that were labeled with varying intensity of red fluorescent dye, and subsequently combined. The buffer contains 30 mM HEPES (pH 7.2), 150 mM KCl, 20 mM NaCl, 0.1% BSA, 1 mM DTT, 1 mM EDTA and 0.1% NP-40. For Rho A and Rac1, 1 mM EDTA was replaced with 1 mM MgCl2 to stabilize the protein. […] To study whether the compounds are slow binders, BODIPY^- FL GTP was added either immediately or 2 h after compound addition. […] The curves were fitted to the sigmoidal dose-response equation using GraphPad Prism. Percent response was calculated as the ratio of (sample MCF–negative control MCF) / (positive control MCF–negative control MCF).
In data set [8] the test system is integrin VLA-4 on U937 FPRΔST cells. Kind of data set: Integrin activation assay (LDV-FITC binding). The note with it: LDV-FITC 4 nM, fMLFF 100 nM. The class given is cell-based. On the procedure: The procedure followed the protocols described previously. U937 FPRΔST cells (0.4~0.8 x 10^6 cells/mL) were continuously stirred with a magnetic stir bar at 500 rpm in a test tube. The fluorescence was recorded on a FACScan flow cytometer. The baseline fluorescence of the cells was established for 30 s. Then LDV-FITC at 4 nM was added. After the fluorescence stabilized at ~120 s, the chemotactic ligand fMLFF at 100 nM was added for stimulation. […] All the concentrations given were the final concentrations. The percent inhibition was calculated according to Equation 1 (Supporting Information).

Data set [9] deals with Rac1 (Homo sapiens, UniProt P63000). Kind of data set: Multiplex bead-based flow cytometry dose-response of fluorescent guanine nucleotide binding. To be noted: read-out: EC50 Rac1; BODIPY-FL GTP binding; 2 h at 4°C; 1 mM MgCl2.
Description: as §2
Data set [10] concerns the target RhoA (Homo sapiens, UniProt P61586). The description is as above. The note with it: read-out: EC50 RhoA; BODIPY-FL GTP binding; 2 h at 4°C; 1 mM MgCl2.
In data set [11] the target is Rac1 Q61L (Homo sapiens, UniProt P63000, Q61L). The description is as above. The note with it: read-out: EC50 Rac1 Q61L; BODIPY-FL GTP binding; 2 h at 4°C.
Data set [12] in a line: Solubility in PBS and assay media. The class given is physicochemical. As to the method: page 7: conclusion, the available data support the idea that compound CID1067700 has non-classical competitive character. […] Solubility was measured in phosphate buffered saline (PBS) at room temperature (23 °C). PBS by definition is 137 mM NaCl, 2.7 mM KCl, 10 mM sodium phosphate dibasic, 2 mM potassium phosphate [monobasic and a pH of 7.4. Detection was based on UV absorbance. […] Solubility was also assessed in the each of the four media used in the individual assays. […] Table 1S. […] Stability, depicted as closed circles in the graph, was assessed at room temperature (23 °C) in PBS (no antioxidants or other protectants and DMSO concentration below 0.1%). Stability data is depicted in Fig. S8 showing the loss of compound with time over a 48 h period with a minimum of 6 time points and providing the percent remaining compound at end of the 48 h period. Under these conditions, 77% of 1 remains after 48 hours. The degradation has not been further characterized.

Setting [13] is: 30mM HEPES, pH 7.5, 100mM KCl, 20mM NaCl, 0.01% (v/v) NP-40.
[14] abbreviates: 30mM HEPES, pH 7.5, 100mM KCl, 20mM NaCl, 0.01% (v/v) NP-40, read-out: Solubility, Dose Response-buffer.
Where [15] appears, read: DMEM/F-12, read-out: Solubility, EGFR degradation assay medium.
[16] abbreviates: RPMI 1640 + 10% HI-FBS, read-out: Solubility, LDV-FITC assay buffer.

RhoA, sequence (P61586 whole entry): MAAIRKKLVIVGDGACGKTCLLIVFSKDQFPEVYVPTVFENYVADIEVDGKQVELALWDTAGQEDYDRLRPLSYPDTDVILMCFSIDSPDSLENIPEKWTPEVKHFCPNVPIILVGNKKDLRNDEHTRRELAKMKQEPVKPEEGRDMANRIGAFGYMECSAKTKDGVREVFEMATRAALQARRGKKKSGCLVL
H-Ras G12V, sequence (P01112 whole entry G12V): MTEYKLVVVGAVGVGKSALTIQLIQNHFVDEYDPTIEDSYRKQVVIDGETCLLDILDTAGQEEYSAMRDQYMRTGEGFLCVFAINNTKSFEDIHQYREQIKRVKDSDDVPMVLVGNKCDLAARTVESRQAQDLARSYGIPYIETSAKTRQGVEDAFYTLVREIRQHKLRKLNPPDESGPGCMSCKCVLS
Rab7, sequence (P18067 2-207 limits assumed): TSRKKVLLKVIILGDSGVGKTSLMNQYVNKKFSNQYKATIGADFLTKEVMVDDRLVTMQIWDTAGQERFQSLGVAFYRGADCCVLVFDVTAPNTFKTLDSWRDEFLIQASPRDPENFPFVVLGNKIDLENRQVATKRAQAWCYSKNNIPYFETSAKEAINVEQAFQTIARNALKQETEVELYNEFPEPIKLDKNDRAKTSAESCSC
Cdc42, sequence (P60953 whole entry): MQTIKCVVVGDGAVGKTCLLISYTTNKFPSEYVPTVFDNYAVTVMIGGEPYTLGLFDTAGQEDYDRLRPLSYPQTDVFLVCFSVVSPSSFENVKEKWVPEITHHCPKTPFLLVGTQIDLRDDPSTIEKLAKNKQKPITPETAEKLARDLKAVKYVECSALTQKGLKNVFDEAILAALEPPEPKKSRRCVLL
Cdc42 Q61L, sequence (P60953 whole entry Q61L): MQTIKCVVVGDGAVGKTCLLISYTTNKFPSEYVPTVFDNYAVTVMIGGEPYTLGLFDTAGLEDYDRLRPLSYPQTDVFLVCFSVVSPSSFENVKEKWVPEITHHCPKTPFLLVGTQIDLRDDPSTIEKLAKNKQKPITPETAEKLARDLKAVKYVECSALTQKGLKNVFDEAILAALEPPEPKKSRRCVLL
H-Ras, sequence (P01112 whole entry): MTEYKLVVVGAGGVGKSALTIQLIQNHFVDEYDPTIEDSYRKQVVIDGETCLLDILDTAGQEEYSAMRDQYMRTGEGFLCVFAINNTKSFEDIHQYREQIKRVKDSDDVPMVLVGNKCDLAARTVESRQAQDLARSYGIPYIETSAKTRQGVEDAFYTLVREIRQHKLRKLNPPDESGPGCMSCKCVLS

With `COc1ccc(C2CC(c3ccccc3)=NN2c2ccc(S(N)(=O)=O)cc2)cc1` (stereo not drawn) [CID2950007], in data set [1], the integrin activation entry is given as “decrease the integrin activation in a dose-dependent fashion”.
Take `COC(=O)c1c(NC(=S)NC(=O)c2ccccc2)sc2c1CC(C)(C)OC2` [Compound 2]: the EC50 in data set [2], in [3], in data set [4], in data set [5] and in data set [6] was greater than 1000 µM each time. In data set [7], the “inhibitory activity on BODIPY-FL GTP binding across all GTPases tested (in words)” value (“inhibitory activity” for short) is “loss of activity”.
Regarding `O=C(NC(=S)Nc1sc2c(c1C(=O)O)CCOC2)c1ccccc1` [Compound 3], the EC50 came out at 0.13 ± 0.078 µM in data set [3]; 0.12 ± 0.12 µM in [4]; 180 ± 130 nM in data set [9]; 230 ± 210 nM in data set [10]; 0.17 ± 0.094 µM in data set [5]; 230 ± 220 nM in data set [11]. Besides, the EC50 in data set [6] stood at 0.11 ± 0.064 µM. Moreover, the “integrin VLA-4 activation (LDV-FITC binding after fMLFF)” value in [8] is listed as “dose-dependently blocked integrin activation”. In addition, in [7], the “inhibitory activity” value is recorded as “did not cause a significant change in potency”.
Regarding `CC1(C)Cc2c(sc(NC(=O)Cc3ccccc3)c2C(=O)O)CO1` [Compound 4], the half-maximal effective concentration (EC50) in data set [2], in [3], in data set [4], in data set [5] and in data set [6] was greater than 1000 µM in each case. Moreover, the “inhibitory activity” value in data set [7] was “inactive”.
`CC1(C)Cc2c(sc(NC(=S)Nc3ccccc3)c2C(=O)O)CO1` [Compound 5]: the “inhibitory activity” value in [7] is “inactive”.
`CC1(C)Cc2c(sc(NC(=O)NC(=O)c3ccccc3)c2C(=O)O)CO1` [Compound 6]: the EC50 came to 0.31 ± 0.09 µM in [2]; 0.47 µM in [3]; 0.49 ± 0.48 µM in data set [4]; 350 ± 50 nM in data set [9]; 330 ± 30 nM in data set [10]; 0.44 ± 0.41 µM in [5]. In addition, the EC50 came out at 400 ± 20 nM in data set [11] and 17 µM in data set [6]. Further, the “loss in potency across all the GTPases” value in data set [7] (versus compound 1) was “more than 2 fold”.
With `COc1cccc(C(=O)NC(=S)Nc2sc3c(c2C(=O)O)CC(C)(C)OC3)c1` [Compound 7], the EC50 in data set [2] is 0.15 ± 0.13 µM; in data set [3], 0.5 ± 0.71 µM; in data set [4], 0.12 ± 0.12 µM; in data set [9] it was 190 ± 60 nM; in data set [10], 200 ± 130 nM; in data set [5], 0.13 ± 0.13 µM. Moreover, the EC50 in data set [11] was 220 ± 140 nM; in data set [6] it was 0.58 ± 0.83 µM. The “Solubility, Dose Response-buffer” value in [12] (setting [13]) was greater than 29.7 µg/mL. Also, the solubility is greater than 70.6 µM in [12] (setting [14]), 129.6 µM (≈ 54.5 µg/mL) in data set [12] (setting [15]) and greater than 197.4 µM in data set [12] (setting [16]). In addition, the “Solubility, EGFR degradation assay medium” value in data set [12] (DMEM/F-12) stood at 54.5 µg/mL (≈ 130 µM). The “Solubility, LDV-FITC assay buffer” value in [12] (RPMI 1640 + 10% HI-FBS) is greater than 83 µg/mL.
On to `CC1(C)Cc2c(sc(NC(=S)NC(=O)c3ccc(F)cc3)c2C(=O)O)CO1` [Compound 9], for which the 50% effective concentration (EC50) came out at 0.41 ± 0.19 µM in data set [2]; 0.88 ± 0.47 µM in data set [3]; 0.091 µM in data set [4]; 150 nM in [9]; 110 nM in data set [10]; 0.33 ± 0.22 µM in data set [5]. The EC50 in data set [11] turned out to be 130 nM; in [6] it was 1 ± 1.2 µM. Besides, the “Solubility, Dose Response-buffer” value in [12] (setting [13]) is reported as greater than 69.1 µg/mL. For the same compound, in data set [12] (DMEM/F-12), the “Solubility, EGFR degradation assay medium” value amounted to 67.6 µg/mL (≈ 165 µM). Also, the solubility in [12] (setting [15]) is listed as 165.5 µM (≈ 67.6 µg/mL); in data set [12] (setting [16]), 282.3 µM. Also, in [12] (RPMI 1640 + 10% HI-FBS), the “Solubility, LDV-FITC assay buffer” value was found to be 115.3 µg/mL.
As for `CC1(C)Cc2c(sc(NC(=S)NC(=O)c3ccccc3Br)c2C(=O)O)CO1` [Compound 10], the concentration giving a half-maximal response (EC50) was determined as 0.43 ± 0.68 µM in [2]; 14.8 ± 20.8 µM in [3]; 0.43 ± 0.68 µM in [4]; 600 ± 800 nM in [9]; 480 ± 740 nM in data set [10]; 0.62 ± 1 µM in data set [5]. The results for the half-maximal effective concentration (EC50) in data set [11] and in [6] were 420 ± 650 nM and 46.8 ± 66 µM, respectively. In addition, in data set [12] (setting [13]), the “Solubility, Dose Response-buffer” value is greater than 93 µg/mL. Moreover, the solubility in data set [12] (setting [14]), in data set [12] (setting [15]) and in [12] (setting [16]) was greater than 198 µM throughout. Besides, the “Solubility, EGFR degradation assay medium” value in data set [12] (DMEM/F-12) is greater than 93 µg/mL. The “Solubility, LDV-FITC assay buffer” value in data set [12] (RPMI 1640 + 10% HI-FBS) is greater than 93 µg/mL.
In the case of `CC1(C)Cc2c(sc(NC(=S)NC(=O)c3ccc(Br)cc3)c2C(=O)O)CO1` [Compound 12], the EC50 in [2] was 0.3 ± 0.18 µM; in [3] it was 10.9 ± 18.4 µM; in data set [4], 0.32 ± 0.22 µM; in [9] it was 260 ± 110 nM; in data set [10] it was 320 ± 130 nM; in [5] it was 0.33 ± 0.24 µM. The EC50 in data set [11] was 280 ± 150 nM; in data set [6], 25.9 ± 44.1 µM.

Broadly, the EC50 is the concentration giving half of the maximal effect. As usually defined, the solubility is the concentration that dissolves in the medium under given conditions.
